The target in one test is Carbonic anhydrase 1 (Homo sapiens, UniProt P00915). In words: CA Enzyme Assay. Particulars: pH 10. Here is the method: (§1) CA activity was measured by the Maren method which is based on determination of the time required for the pH to decrease from 10.0 to 7.4 due to CO2 hydration [Maren et al., J. Pharm. Exp. Ther., 130:2629-2634]. The assay solution was 0.5 M Na2CO3/0.1 M NaHCO3 (pH 10.0) and Phenol Red was added as the pH indicator.

In the next test the target is Carbonic anhydrase 2 (Homo sapiens, UniProt P00918). Briefly: CA Enzyme Assay. The settings on record: pH 10. Here is the method:
as §1

Sequence of Carbonic anhydrase 1 (P00915 whole entry): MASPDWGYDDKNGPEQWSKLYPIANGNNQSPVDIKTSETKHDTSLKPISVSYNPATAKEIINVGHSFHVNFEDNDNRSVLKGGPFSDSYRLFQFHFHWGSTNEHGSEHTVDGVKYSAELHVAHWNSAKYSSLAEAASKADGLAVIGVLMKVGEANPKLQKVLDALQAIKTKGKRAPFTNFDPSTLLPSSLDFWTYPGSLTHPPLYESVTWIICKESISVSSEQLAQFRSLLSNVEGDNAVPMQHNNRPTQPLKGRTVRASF

As for `CCOCCN1CN(Cc2cc(=O)oc3c(O)c(O)ccc23)c2ccccc21` [1-(2-Ethoxyethyl)-3-(4-methyl-7,8-dihydroxy-2H-chromen-2-one)benzimidazolium chloride (3e)], the IC50 against Carbonic anhydrase 1 came to 32.9 µM; at Carbonic anhydrase 2, 33.2 µM.
For `COCCN1CN(Cc2cc(=O)oc3c(O)c(O)ccc23)c2ccccc21` [1-(2-Methoxyethyl)-3-(4-methyl-7,8-dihydroxy-2H-chromen-2-one)benzimidazolium chloride (3d)], the values for the IC50 against Carbonic anhydrase 1 and against Carbonic anhydrase 2 were 32.6 µM and 41.4 µM, respectively.
As to `Cc1cccc(CN2CN(Cc3cc(=O)oc4c(O)c(O)ccc34)c3ccccc32)c1` [1-(3-Methylbenzyl)-3-(4-methyl-7,8-dihydroxy-2H-chromen-2-one)benzimidazolium chloride (3g)], the figures for the IC50 at Carbonic anhydrase 1 and against Carbonic anhydrase 2 were 22.1 µM and 28.9 µM, respectively.
The matching figures for `C=CCN1CN(Cc2cc(=O)oc3c(O)c(O)ccc23)c2ccccc21` [1-Allyl-3-(4-methyl-7,8-dihydroxy-2H-chromen-2-one)benzimidazolium chloride (3c)]: 48.1 µM and 29.7 µM.
